The values below are quoted from earlier work in patent US7456023B2, “Reagent for luminescence optical determination of an analyte” (Roche Diagnostics Operations, Inc., priority 2000, dated 2008).

The conditions of the first data set: deprotonated form.
Consider `Cc1ccc(O)c(N=Nc2c(O)cc(S(=O)(=O)O)c3ccccc23)c1` [Calmagit], for which the “Absorption wavelength, deprotonated” value is listed as 605 nm.

For the compound `O=C1C=CC(=Nc2ccc(O)cc2)C=C1Cl` [o-chlorophenol-indophenol], the “Absorption wavelength, deprotonated” value is listed as 625 nm.

Consider Nitrazine yellow, for which the “Absorption wavelength, deprotonated” value is on record as 590 nm.

Consider `O=S1(=O)OC(c2cc(Br)c(O)c(Br)c2)(c2cc(Br)c(O)c(Br)c2)c2ccccc21` [Bromophenol blue], for which the “Absorption wavelength, deprotonated” value is reported as 617 nm.

With Dibromoxylenol blue, the “Absorption wavelength, deprotonated” value was 614 nm.

For the compound `O=C1OC(c2ccc(O)c3ccccc23)(c2ccc(O)c3ccccc23)c2ccccc21` [Naphthol-phthalein], the “Absorption wavelength, deprotonated” value was 661 nm.

Regarding `Cc1c(C2(c3cc(C(C)C)c(O)c(Br)c3C)OS(=O)(=O)c3ccccc32)cc(C(C)C)c(O)c1Br` [Bromothymol blue], the “Absorption wavelength, deprotonated” value was 615-618 nm.

The same data set, now with this note: protonated form.
With `Cc1ccc(O)c(N=Nc2c(O)cc(S(=O)(=O)O)c3ccccc23)c1` [Calmagit], the “Absorption wavelength, protonated” value is listed as 530 nm.

For the compound `O=C1C=CC(=Nc2ccc(O)cc2)C=C1Cl` [o-chlorophenol-indophenol], the “Absorption wavelength, protonated” value is 555 nm.

Turning to Nitrazine yellow, the “Absorption wavelength, protonated” value was 460 nm.

As to `O=S1(=O)OC(c2cc(Br)c(O)c(Br)c2)(c2cc(Br)c(O)c(Br)c2)c2ccccc21` [Bromophenol blue], the “Absorption wavelength, protonated” value is 430 nm.

Take Dibromoxylenol blue: the “Absorption wavelength, protonated” value was 420 nm.

In the case of `O=C1OC(c2ccc(O)c3ccccc23)(c2ccc(O)c3ccccc23)c2ccccc21` [Naphthol-phthalein], the “Absorption wavelength, protonated” value is reported as 428 nm.

With `Cc1c(C2(c3cc(C(C)C)c(O)c(Br)c3C)OS(=O)(=O)c3ccccc32)cc(C(C)C)c(O)c1Br` [Bromothymol blue], the “Absorption wavelength, protonated” value is listed as 430-435 nm.

Details in a further data set: not given
Take Nitrazine yellow: the pKa was 6.5.
